Measurements published in ChEMBL document CHEMBL4145563, “Poecillastrin H, a Chondropsin-Type Macrolide with a Conjugated Pentaene Moiety, from a Characella sp. Marine Sponge” (J Nat Prod, 2018).
Activity calls are given as the source filed them. The rule behind the calls is not given here.

Columns and labels:
[1] = tested on: 3Y1 cell line; test: Induction of morphological changes in rat 3Y1 cells assessed as elongation of cells; type: functional, cell-based
[2] = tested on: 3Y1 cell line; test: Cytotoxicity against rat 3Y1 cells after 72 hrs by MTT assay; type: functional, cell-based; details: 3Y1, 72 h

CO/C1=C\C(C)=C\[C@@H](C)[C@@H](O)[C@@H](C)C/C(C)=C/C=C/[C@H](OC)[C@@H]([C@@H](C)[C@@H](O)[C@H](C)[C@@]2(O)C[C@@H](O)[C@H](C)[C@@H](C(C)C)O2)OC1=O
Activity [1]: Active

C/C1=C\CC(O)C(C)C(C(NC(=O)C(C)C(O)CCC(C)C(O)/C(C)=C/C(C)(C)C(O)C(CC(C)C)NC(=O)/C=C/C(C)(C)C(=O)C(C)C(O)C(C)C)C(C)O)OC(=O)[C@H](O)[C@H](C(=O)O)NC(=O)/C=C/C=C/C=C/C=C/C=C/CC2CC(C)CC(CC(O)C(C)C(O)/C(C)=C/C(C)C1O)O2 (stereo partly drawn)
IC50 [2]: 4.1 nM
Activity [1]: Active
